Assay results reported in patent US6569881B1, “Substituted benzimidazole, the production thereof and the use thereof as means against parasitic protozoa” (Bayer Aktiengesellschaft, priority 1999, dated 2003).

Columns and labels:
Format in all cases: in vivo, chicken chicks
[1] = tested on: Eimeria tenella; experiment: Cage experiments coccidiosis/chicks, Eimeria tenella part of the mixed infection; details: for Efficacy against Eimeria tenella (grade): third symbol of cell; on Efficacy against Eimeria tenella (grade): key: 2 = complete action; 1 = weak action; 0 = inactive; D = death
Method: (§1) The efficacy of the compounds according to the invention can be confirmed, for example, in cage experiments using the following experimental arrangement, in which the animals are treated with the respective individual components and with the mixtures of the individual components.
(§2) An active compound-containing feed is prepared in such a way that the required amount of active compound is thoroughly mixed with a nutritionally balanced animal feed, e.g. with the chick feed indicated below.
(§3) 8 to 12 day-old male chicken chicks raised under coccidea-free conditions (e.g. LSL Brinkschulte/Senden) receive the compounds according to the invention (test substances) from 3 days before (day -3) the infection (=a.i.) until 8 (9) days after the infection (=p.i.) with the feed in the concentration indicated in ppm. Three animals are kept in each cage. Per dose, one to a number of groups of this type are employed. Infection is carried out by means of a stomach tube directly into the crop using approximately 100,000 sporulated oocysts of Eimeria acervulina and with in each case approximately 30,000 oocysts of E. maxima and 40,000 sporulated oocysts of E. tenella. These are highly virulent strains. The exact infectious dose is adjusted such that if possible one of three experimentally infected untreated chicks dies due to infection. For the assessment of the efficacy, the following criteria are taken into consideration: weight increase from the start of the experiment to the end of the experiment, death rate due to infection, macroscopic assessment of the faeces with respect to diarrhoea and excretion of blood on days 5 and 7 p.i. (grade 0 to 6), macroscopic grade of the intestinal mucous membrane, in particular of the cecums (grade 0 to 6) and the oocyst excretion and also the proportion (in %) of the oocysts sporulating within 24 hours. The number of oocysts in the faeces was determined with the aid of the McMaster counting chamber (see Engelbrecht and coworkers “Parasitologische Arbeitsmethoden in Medizin und Veterinärmedizin, [Parasitological working methods in medicine and veterinary medicine] Akademie-Verlag, Berlin (1965)). The individual findings are related to the untreated noninfected control groups and an overall grade is calculated (cf. A. Haberkorn (1986), pp. 263 to 270 in Research in Avian Coccidiosis ed L. R. McDougald, L. P. Joyner, P. L. Long Proceedings of the Georgia Coccidiosis Conference Nov, 18-20, 1985 Athens/Ga. USA).
(§4) In the columns “dropping scores”, “lesion score” and “oocyst control”, individual details of the action are given.

[2] = tested on: Eimeria acervulina, Eimeria maxima and Eimeria tenella; experiment: Cage experiments coccidiosis/chicks, mixed experimental infection; details: for dropping scores / lesion score: grade 0 to 6
Method: as §1, §2, §3
In the column “ppm”, the concentration of the active compound employed in the feed is indicated in ppm.
In the column “mortality”, the percentage of the animals which have died is indicated under % and the number of the animals which have died/animals employed in the experiment is indicated under n.
In the column “weight % of not inf. control”, the ratio of the weight of the treated animals to the weight of the noninfected control group is indicated.
as §4
In the column “% efficacy”, the overall rating is assessed; 0% means no action, 100% means complete action.

[3] = tested on: Eimeria maxima; experiment: Cage experiments coccidiosis/chicks, Eimeria maxima part of the mixed infection; details: for Efficacy against Eimeria maxima (grade): second symbol of cell; on Efficacy against Eimeria maxima (grade): key: 2 = complete action; 1 = weak action; 0 = inactive; D = death
Method: as §1, §2, §3, §4

[4] = tested on: Eimeria acervulina; experiment: Cage experiments coccidiosis/chicks, Eimeria acervulina part of the mixed infection; details: for Efficacy against Eimeria acervulina (grade): first symbol of cell; on Efficacy against Eimeria acervulina (grade): key: 2 = complete action; 1 = weak action; 0 = inactive; D = death
Method: as §1, §2, §3, §4

[5] = 5 ppm in feed, listed as Ex. 15
[6] = 10 ppm in feed, listed as Ex. 15

Structure (SMILES): Cc1oc(=O)oc1Cn1c(C(F)(F)F)nc2c(Cl)cc3c(c21)OC(F)(F)C(F)(F)O3 [Example 15]
- oocyst in % of inf. control ten. ([1]; 2.5 ppm in feed): 48%
- oocyst in % of inf. control ten. ([1]; 5 ppm in feed): 0%
- oocyst in % of inf. control ten. [1, 5]: 23%
- oocyst in % of inf. control ten. ([1]; 7.5 ppm in feed): 12%
- oocyst in % of inf. control ten. ([1]; 10 ppm in feed): 0%
- oocyst in % of inf. control ten. [1, 6]: 1%
- Efficacy against Eimeria tenella (grade) ([1]; Dose 5 ppm): 1
- Efficacy against Eimeria tenella (grade) ([1]; Dose 10 ppm): 2
- Efficacy against Eimeria tenella (grade) ([1]; Dose 25 ppm): 1
- % efficacy tot. ([2]; 2.5 ppm in feed): 43%
- mortality % ([2]; 2.5 ppm in feed): 0%
- mortality n (died/employed) ([2]; 2.5 ppm in feed): 0/3
- oocyst in % of inf. control tot. ([2]; 2.5 ppm in feed): 48%
- weight % of not inf. control ([2]; 2.5 ppm in feed): 80%
- dropping scores ([2]; 2.5 ppm in feed): 1
- lesion score ([2]; 2.5 ppm in feed): 6
- % efficacy tot. ([2]; 5 ppm in feed): 75%
- mortality % ([2]; 5 ppm in feed): 0%
- mortality n (died/employed) ([2]; 5 ppm in feed): 0/3
- oocyst in % of inf. control tot. ([2]; 5 ppm in feed): 1%
- weight % of not inf. control ([2]; 5 ppm in feed): 85%
- dropping scores ([2]; 5 ppm in feed): 6
- lesion score ([2]; 5 ppm in feed): 1
- lesion score [2, 5]: 6
- % efficacy tot. [2, 5]: 23%
- oocyst in % of inf. control tot. [2, 5]: 31%
- weight % of not inf. control [2, 5]: 75%
- % efficacy tot. ([2]; 7.5 ppm in feed): 60%
- mortality % ([2]; 7.5 ppm in feed): 0%
- mortality n (died/employed) ([2]; 7.5 ppm in feed): 0/3
- oocyst in % of inf. control tot. ([2]; 7.5 ppm in feed): 13%
- weight % of not inf. control ([2]; 7.5 ppm in feed): >100%
- dropping scores ([2]; 7.5 ppm in feed): 6
- lesion score ([2]; 7.5 ppm in feed): 2
- % efficacy tot. ([2]; 10 ppm in feed): 91%
- mortality % ([2]; 10 ppm in feed): 0%
- mortality n (died/employed) ([2]; 10 ppm in feed): 0/3
- oocyst in % of inf. control tot. ([2]; 10 ppm in feed): 0%
- weight % of not inf. control ([2]; 10 ppm in feed): 82%
- dropping scores ([2]; 10 ppm in feed): 0
- lesion score ([2]; 10 ppm in feed): 0
- lesion score [2, 6]: 1
- % efficacy tot. [2, 6]: 89%
- oocyst in % of inf. control tot. [2, 6]: 1%
- weight % of not inf. control [2, 6]: 92%
- mortality % ([2]; 25 ppm in feed): 100%
- mortality n (died/employed) ([2]; 25 ppm in feed): 3/3
- dropping scores ([2]; 25 ppm in feed): 0
- oocyst in % of inf. control max. ([3]; 2.5 ppm in feed): 0%
- oocyst in % of inf. control max. ([3]; 5 ppm in feed): 2%
- oocyst in % of inf. control max. [3, 5]: 0%
- oocyst in % of inf. control max. ([3]; 7.5 ppm in feed): 0%
- oocyst in % of inf. control max. ([3]; 10 ppm in feed): 0%
- Efficacy against Eimeria maxima (grade) ([3]; Dose 5 ppm): 0
- Efficacy against Eimeria maxima (grade) ([3]; Dose 10 ppm): 1
- Efficacy against Eimeria maxima (grade) ([3]; Dose 25 ppm): 2
- oocyst in % of inf. control ac. ([4]; 2.5 ppm in feed): 48%
- oocyst in % of inf. control ac. ([4]; 5 ppm in feed): 2%
- oocyst in % of inf. control ac. [4, 5]: 49%
- oocyst in % of inf. control ac. ([4]; 7.5 ppm in feed): 16%
- oocyst in % of inf. control ac. ([4]; 10 ppm in feed): 0%
- oocyst in % of inf. control ac. [4, 6]: 2%
- Efficacy against Eimeria acervulina (grade) ([4]; Dose 5 ppm): 1
- Efficacy against Eimeria acervulina (grade) ([4]; Dose 10 ppm): 2
- Efficacy against Eimeria acervulina (grade) ([4]; Dose 25 ppm): 2

Structure (SMILES): Cc1oc(=O)oc1Cn1c(C(F)(F)F)nc2cc(Cl)c(C(F)(F)F)cc21 [Example 18]
- oocyst in % of inf. control ten. ([1]; 5 ppm in feed): >100%
- oocyst in % of inf. control ten. ([1]; 10 ppm in feed): >100%
- oocyst in % of inf. control ten. ([1]; 25 ppm in feed): 1%
- Efficacy against Eimeria tenella (grade) ([1]; Dose 5 ppm): 0
- Efficacy against Eimeria tenella (grade) ([1]; Dose 10 ppm): 0
- Efficacy against Eimeria tenella (grade) ([1]; Dose 25 ppm): 2
- % efficacy tot. ([2]; 5 ppm in feed): 7%
- mortality % ([2]; 5 ppm in feed): 0%
- mortality n (died/employed) ([2]; 5 ppm in feed): 0/3
- oocyst in % of inf. control tot. ([2]; 5 ppm in feed): >100%
- weight % of not inf. control ([2]; 5 ppm in feed): 33%
- dropping scores ([2]; 5 ppm in feed): 6
- lesion score ([2]; 5 ppm in feed): 6
- % efficacy tot. ([2]; 10 ppm in feed): 5%
- mortality % ([2]; 10 ppm in feed): 0%
- mortality n (died/employed) ([2]; 10 ppm in feed): 0/3
- oocyst in % of inf. control tot. ([2]; 10 ppm in feed): >100%
- weight % of not inf. control ([2]; 10 ppm in feed): 30%
- dropping scores ([2]; 10 ppm in feed): 6
- lesion score ([2]; 10 ppm in feed): 6
- % efficacy tot. ([2]; 25 ppm in feed): 75%
- mortality % ([2]; 25 ppm in feed): 0%
- mortality n (died/employed) ([2]; 25 ppm in feed): 0/3
- oocyst in % of inf. control tot. ([2]; 25 ppm in feed): 1%
- weight % of not inf. control ([2]; 25 ppm in feed): 82%
- dropping scores ([2]; 25 ppm in feed): 1
- lesion score ([2]; 25 ppm in feed): 3
- oocyst in % of inf. control max. ([3]; 5 ppm in feed): >100%
- oocyst in % of inf. control max. ([3]; 10 ppm in feed): 0%
- oocyst in % of inf. control max. ([3]; 25 ppm in feed): 20%
- Efficacy against Eimeria maxima (grade) ([3]; Dose 5 ppm): 0
- Efficacy against Eimeria maxima (grade) ([3]; Dose 10 ppm): 0
- Efficacy against Eimeria maxima (grade) ([3]; Dose 25 ppm): 1
- oocyst in % of inf. control ac. ([4]; 5 ppm in feed): >100%
- oocyst in % of inf. control ac. ([4]; 10 ppm in feed): >100%
- oocyst in % of inf. control ac. ([4]; 25 ppm in feed): 0%
- Efficacy against Eimeria acervulina (grade) ([4]; Dose 5 ppm): 0
- Efficacy against Eimeria acervulina (grade) ([4]; Dose 10 ppm): 0
- Efficacy against Eimeria acervulina (grade) ([4]; Dose 25 ppm): 2
